Measured values from patent publication US20240158370A1, “CK1 alpha AND DUAL CK1 alpha / GSPT1 DEGRADING COMPOUNDS” (Innovo Therapeutics, Inc., priority 2022, published 2024).

Experiments:
CK1α = biological target: T1, CK1α (Homo sapiens, UniProt P48729+Q96SW2); test: HiBiT degradation assay, CK1α, Procedure A; assay type: cell-based; conditions: six hours incubation
T1 construct: CSNK1A1-HiBit KI HEK293(LgBit) Cells; host or cells: HEK293(LgBit) knock-in cells
Outline: (§1)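 Luminescence from HiBiT lytic detection, read after 20 min shaking, gave DC50 and Ymin by 4-parameter fit. Before that, cells (1×10^6 cells/ml, DMEM+10% FBS) sat 6 h at 37° C on 10-point compound series (10 μM–0.005 μM, 0.1% DMSO).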

GSPT1 = GSPT1 (Homo sapiens, UniProt P15170+Q96SW2); test: HiBiT degradation assay, GSPT1, Procedure A; assay type: cell-based; design: HiBit-GSPT1 KI HEK293(LgBit) Cells; host or cells: HEK293(LgBit) knock-in cells; conditions: six hours incubation
GSPT1, sequence (P15170 whole entry): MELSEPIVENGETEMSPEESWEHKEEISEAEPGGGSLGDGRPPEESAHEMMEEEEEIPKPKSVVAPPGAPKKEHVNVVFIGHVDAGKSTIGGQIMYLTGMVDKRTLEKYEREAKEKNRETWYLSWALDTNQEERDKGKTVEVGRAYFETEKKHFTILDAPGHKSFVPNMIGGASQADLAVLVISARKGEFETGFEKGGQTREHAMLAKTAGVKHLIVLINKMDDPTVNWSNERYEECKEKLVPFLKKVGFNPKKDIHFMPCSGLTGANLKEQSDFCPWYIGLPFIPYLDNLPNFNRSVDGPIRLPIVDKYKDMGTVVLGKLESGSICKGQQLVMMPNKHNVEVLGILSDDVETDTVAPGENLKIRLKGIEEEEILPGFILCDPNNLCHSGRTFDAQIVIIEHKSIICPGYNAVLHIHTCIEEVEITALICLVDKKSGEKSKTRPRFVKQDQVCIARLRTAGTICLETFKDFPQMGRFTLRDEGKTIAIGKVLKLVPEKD
GSPT1, sequence (Q96SW2 whole entry): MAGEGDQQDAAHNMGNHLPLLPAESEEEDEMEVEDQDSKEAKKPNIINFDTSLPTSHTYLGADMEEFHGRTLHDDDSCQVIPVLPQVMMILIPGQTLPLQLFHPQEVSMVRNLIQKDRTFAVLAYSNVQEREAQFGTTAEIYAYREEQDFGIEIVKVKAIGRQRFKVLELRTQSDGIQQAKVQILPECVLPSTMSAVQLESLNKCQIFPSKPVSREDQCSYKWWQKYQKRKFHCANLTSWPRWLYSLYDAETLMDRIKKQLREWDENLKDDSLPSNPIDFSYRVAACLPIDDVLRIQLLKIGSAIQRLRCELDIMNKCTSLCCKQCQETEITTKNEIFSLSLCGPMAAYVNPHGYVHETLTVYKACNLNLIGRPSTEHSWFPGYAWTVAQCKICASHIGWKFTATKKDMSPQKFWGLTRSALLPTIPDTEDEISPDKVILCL
GSPT1, sequence (Q16531 whole entry partner): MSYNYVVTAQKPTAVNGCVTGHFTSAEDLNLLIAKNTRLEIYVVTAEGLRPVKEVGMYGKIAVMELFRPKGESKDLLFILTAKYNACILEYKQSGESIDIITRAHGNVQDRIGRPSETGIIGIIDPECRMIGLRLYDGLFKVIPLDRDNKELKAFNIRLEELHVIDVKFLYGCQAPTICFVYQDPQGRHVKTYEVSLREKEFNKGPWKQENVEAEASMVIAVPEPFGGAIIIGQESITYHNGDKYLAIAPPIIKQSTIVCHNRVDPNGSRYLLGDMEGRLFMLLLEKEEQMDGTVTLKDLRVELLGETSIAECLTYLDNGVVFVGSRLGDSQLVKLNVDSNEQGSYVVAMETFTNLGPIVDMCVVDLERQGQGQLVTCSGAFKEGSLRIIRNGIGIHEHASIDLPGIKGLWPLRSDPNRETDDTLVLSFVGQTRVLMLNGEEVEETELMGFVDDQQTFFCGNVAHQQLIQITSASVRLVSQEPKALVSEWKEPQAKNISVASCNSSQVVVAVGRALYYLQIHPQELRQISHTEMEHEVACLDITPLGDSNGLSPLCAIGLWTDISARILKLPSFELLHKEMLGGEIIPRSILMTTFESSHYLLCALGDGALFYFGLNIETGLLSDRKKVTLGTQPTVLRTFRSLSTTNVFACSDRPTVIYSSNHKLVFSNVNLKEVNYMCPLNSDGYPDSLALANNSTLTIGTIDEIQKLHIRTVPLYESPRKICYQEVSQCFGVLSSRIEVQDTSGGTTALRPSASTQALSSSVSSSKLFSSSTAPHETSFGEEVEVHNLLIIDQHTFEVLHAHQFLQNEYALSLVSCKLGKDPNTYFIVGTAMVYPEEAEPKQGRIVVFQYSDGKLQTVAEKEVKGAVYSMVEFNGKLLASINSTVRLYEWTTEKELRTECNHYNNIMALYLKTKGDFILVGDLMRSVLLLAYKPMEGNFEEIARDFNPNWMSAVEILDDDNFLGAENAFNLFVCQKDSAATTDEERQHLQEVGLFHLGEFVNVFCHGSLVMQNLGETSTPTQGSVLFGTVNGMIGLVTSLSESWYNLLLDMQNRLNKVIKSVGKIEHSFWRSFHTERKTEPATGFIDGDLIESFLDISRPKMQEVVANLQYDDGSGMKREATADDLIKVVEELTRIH
Outline: as §1

T1 sequence (P48729 whole entry): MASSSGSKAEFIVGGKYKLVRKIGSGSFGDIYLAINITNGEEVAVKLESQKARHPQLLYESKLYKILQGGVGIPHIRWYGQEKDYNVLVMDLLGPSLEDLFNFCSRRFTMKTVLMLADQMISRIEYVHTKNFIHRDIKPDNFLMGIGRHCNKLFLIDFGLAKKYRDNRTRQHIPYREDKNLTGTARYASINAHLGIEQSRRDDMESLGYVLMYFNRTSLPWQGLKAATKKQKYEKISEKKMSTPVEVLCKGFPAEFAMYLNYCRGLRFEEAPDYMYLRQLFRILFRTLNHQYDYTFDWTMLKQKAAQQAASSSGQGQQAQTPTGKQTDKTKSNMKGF
T1 sequence (Q96SW2 whole entry): as the sequence (Q96SW2 whole entry) above
T1 sequence (Q16531 whole entry partner): as the sequence (Q16531 whole entry partner) above

SMILES | CK1α Ymin (CK1α) | DC50 (CK1α) [nM] | DC50 (GSPT1) [nM] | GSPT1 Ymin (GSPT1)
Cc1cc(-c2c(-c3ccc4c(c3)CN(C3CCC(=O)NC3=O)C4=O)cnn2C)ccc1Cl (stereo not drawn) [Example 99] | E (E = >25-75% remaining) | < 25 | ≥ 25 | F (F = >75-100% remaining)
Cn1ncc(-c2ccc3c(c2)CN(C2CCC(=O)NC2=O)C3=O)c1-c1ccc(NC(=O)c2ccccc2)cc1 (stereo not drawn) [Example 100] | E (E = >25-75% remaining) | ≥ 25 | ≥ 25 | F (F = >75-100% remaining)
Cn1ncc(-c2ccc3c(c2)CN(C2CCC(=O)NC2=O)C3=O)c1-c1ccc(-c2ccc(C#N)cc2)cc1 (stereo not drawn) [Example 101] | E (E = >25-75% remaining) | < 25 | ≥ 25 | F (F = >75-100% remaining)
Cn1ncc(-c2ccc3c(c2)CN(C2CCC(=O)NC2=O)C3=O)c1-c1ccc(C(=O)NCc2ccccc2)c(Cl)c1 (stereo not drawn) [Example 102] | E (E = >25-75% remaining) | ≥ 25 | ≥ 25 | F (F = >75-100% remaining)
Cn1ncc(-c2ccc3c(c2)CN(C2CCC(=O)NC2=O)C3=O)c1-c1ccc(-c2cccnc2)cc1 (stereo not drawn) [Example 103] | D (D = >10- 25% remaining) | < 25 | ≥ 25 | F (F = >75-100% remaining)
COc1ccc(-c2c(-c3ccc4c(c3)CN(C3CCC(=O)NC3=O)C4=O)cnn2C)cc1F (stereo not drawn) [Example 104] | C (C = 0-10% remaining) | < 25 | ≥ 25 | F (F = >75-100% remaining)
Cn1ncc(-c2ccc3c(c2)CN(C2CCC(=O)NC2=O)C3=O)c1-c1cccc2c1OCC2 (stereo not drawn) [Example 105] | E (E = >25-75% remaining) | < 25 | ≥ 25 | F (F = >75-100% remaining)
Cc1cccc(-c2c(-c3ccc4c(c3)CN(C3CCC(=O)NC3=O)C4=O)cnn2C)c1F (stereo not drawn) [Example 106] | E (E = >25-75% remaining) | < 25 | ≥ 25 | F (F = >75-100% remaining)
COc1c(F)cccc1-c1c(-c2ccc3c(c2)CN(C2CCC(=O)NC2=O)C3=O)cnn1C (stereo not drawn) [Example 107] | E (E = >25-75% remaining) | < 25 | ≥ 25 | F (F = >75-100% remaining)
Cn1ncc(-c2ccc3c(c2)CN(C2CCC(=O)NC2=O)C3=O)c1-c1cccc(F)c1Cl (stereo not drawn) [Example 108] | E (E = >25-75% remaining) | < 25 | ≥ 25 | F (F = >75-100% remaining)
Cc1ccc(-c2c(-c3ccc4c(c3)CN(C3CCC(=O)NC3=O)C4=O)cnn2C)c(C#N)c1 (stereo not drawn) [Example 109] | E (E = >25-75% remaining) | < 25 | ≥ 25 | F (F = >75-100% remaining)
Cn1ncc(-c2ccc3c(c2)CN(C2CCC(=O)NC2=O)C3=O)c1-c1ccc(C2(C#N)CC2)cc1 (stereo not drawn) [Example 110] | E (E = >25-75% remaining) | < 25 | ≥ 25 | F (F = >75-100% remaining)
Cn1ncc(-c2ccc3c(c2)CN(C2CCC(=O)NC2=O)C3=O)c1-c1cccc(N2CCCCC2)c1 (stereo not drawn) [Example 111] | F (F = >75-100% remaining) | ≥ 25 | ≥ 25 | F (F = >75-100% remaining)
Cn1ncc(-c2ccc3c(c2)CN(C2CCC(=O)NC2=O)C3=O)c1-c1ccc(COc2ccccc2)cc1 (stereo not drawn) [Example 112] | D (D = >10- 25% remaining) | < 25 | ≥ 25 | F (F = >75-100% remaining)
COc1ccc(-c2c(-c3ccc4c(c3)CN(C3CCC(=O)NC3=O)C4=O)cnn2C)cc1OCc1ccccc1 (stereo not drawn) [Example 113] | D (D = >10- 25% remaining) | < 25 | ≥ 25 | F (F = >75-100% remaining)
Cn1ncc(-c2ccc3c(c2)CN(C2CCC(=O)NC2=O)C3=O)c1-c1cccc2c1CCC2 (stereo not drawn) [Example 114] | E (E = >25-75% remaining) | < 25 | ≥ 25 | F (F = >75-100% remaining)
Cn1ncc(-c2ccc3c(c2)CN(C2CCC(=O)NC2=O)C3=O)c1-c1ccccc1C1CC1 (stereo not drawn) [Example 115] | E (E = >25-75% remaining) | < 25 | ≥ 25 | F (F = >75-100% remaining)
Cn1ncc(-c2ccc3c(c2)CN(C2CCC(=O)NC2=O)C3=O)c1C1CC1 (stereo not drawn) [Example 116] | E (E = >25-75% remaining) | ≥ 25 | ≥ 25 | F (F = >75-100% remaining)

SMILES | CK1α Ymin (CK1α) | DC50 (CK1α) [nM] | DC50 (GSPT1) [nM] | GSPT1 Ymin (GSPT1)
Cn1c(C2CC2)nc(-c2ccc3c(c2)CN(C2CCC(=O)NC2=O)C3=O)c1-c1cncnc1 (stereo not drawn) [Example 117, 3-(5-(2-cyclopropyl-1-methyl-5-(pyrimidin-5-yl)-1H-imidazol-4-yl)-1-oxoisoindolin-2-yl)piperidine-2,6-dione] | C (C = 0-10% remaining) | < 25 | ≥ 25 | F (F = >75-100% remaining)
O=C1CCC(N2Cc3cc(-c4c[nH]nc4-c4ccccn4)ccc3C2=O)C(=O)N1 (stereo not drawn) [Example 118, 3-(1-oxo-5-(3-(pyridin-2-yl)-1H-pyrazol-4-yl)isoindolin-2-yl)piperidine-2,6-dione] | E (E = >25-75% remaining) | ≥ 25 | ≥ 25 | F (F = >75-100% remaining)
Cn1ncc(-c2ccc3c(c2)CN(C2CCC(=O)NC2=O)C3=O)c1-c1ccc(Cl)c(C#N)c1 (stereo not drawn) [Example 119] | E (E = >25-75% remaining) | ≥ 25 | ≥ 25 | F (F = >75-100% remaining)
Cn1ncc(-c2ccc3c(c2)CN(C2CCC(=O)NC2=O)C3=O)c1-c1cc(F)ccc1Cl (stereo not drawn) [Example 120] | E (E = >25-75% remaining) | ≥ 25 | ≥ 25 | F (F = >75-100% remaining)
CN(C)C(=O)c1ccc(-c2c(-c3ccc4c(c3)CN(C3CCC(=O)NC3=O)C4=O)cnn2C)cc1 (stereo not drawn) [Example 121] | C (C = 0-10% remaining) | ≥ 25 | ≥ 25 | F (F = >75-100% remaining)
CNC(=O)c1cccc(-c2c(-c3ccc4c(c3)CN(C3CCC(=O)NC3=O)C4=O)cnn2C)c1 (stereo not drawn) [Example 122] | E (E = >25-75% remaining) | ≥ 25 | ≥ 25 | F (F = >75-100% remaining)
Cn1ncc(-c2ccc3c(c2)CN(C2CCC(=O)NC2=O)C3=O)c1-c1cccc(C#N)c1 (stereo not drawn) [Example 123] | E (E = >25-75% remaining) | < 25 | ≥ 25 | F (F = >75-100% remaining)
Cn1ncc(-c2ccc3c(c2)CN(C2CCC(=O)NC2=O)C3=O)c1-c1ccc(N)cc1 (stereo not drawn) [Example 124] | C (C = 0-10% remaining) | < 25 | ≥ 25 | F (F = >75-100% remaining)
Cc1c(F)cccc1-c1c(-c2ccc3c(c2)CN(C2CCC(=O)NC2=O)C3=O)cnn1C (stereo not drawn) [Example 125] | E (E = >25-75% remaining) | < 25 | ≥ 25 | F (F = >75-100% remaining)
Cc1ccsc1-c1c(-c2ccc3c(c2)CN(C2CCC(=O)NC2=O)C3=O)cnn1C (stereo not drawn) [Example 126] | D (D = >10- 25% remaining) | < 25 | ≥ 25 | F (F = >75-100% remaining)
Cn1ncc(-c2ccc3c(c2)CN(C2CCC(=O)NC2=O)C3=O)c1-c1ccccc1N (stereo not drawn) [Example 127] | E (E = >25-75% remaining) | < 25 | ≥ 25 | F (F = >75-100% remaining)
Cc1csc(-c2c(-c3ccc4c(c3)CN(C3CCC(=O)NC3=O)C4=O)cnn2C)c1 (stereo not drawn) [Example 128] | D (D = >10- 25% remaining) | < 25 | ≥ 25 | F (F = >75-100% remaining)
Cn1ncc(-c2ccc3c(c2)CN(C2CCC(=O)NC2=O)C3=O)c1-c1cccc(Cl)c1 (stereo not drawn) [Example 129] | E (E = >25-75% remaining) | < 25 | ≥ 25 | F (F = >75-100% remaining)
Cn1ncc(-c2ccc3c(c2)CN(C2CCC(=O)NC2=O)C3=O)c1-c1ccc(F)cc1F (stereo not drawn) [Example 130] | E (E = >25-75% remaining) | < 25 | ≥ 25 | F (F = >75-100% remaining)
Cn1ncc(-c2ccc3c(c2)CN(C2CCC(=O)NC2=O)C3=O)c1-c1ccsc1Cl (stereo not drawn) [Example 131] | E (E = >25-75% remaining) | < 25 | ≥ 25 | F (F = >75-100% remaining)
Cn1ncc(-c2ccc3c(c2)CN(C2CCC(=O)NC2=O)C3=O)c1-c1ccccc1Cl (stereo not drawn) [Example 132] | E (E = >25-75% remaining) | < 25 | ≥ 25 | F (F = >75-100% remaining)
Cn1ncc(-c2ccc3c(c2)CN(C2CCC(=O)NC2=O)C3=O)c1-c1ccc(Oc2cccnc2)cc1 (stereo not drawn) [Example 133] | E (E = >25-75% remaining) | ≥ 25 | ≥ 25 | F (F = >75-100% remaining)
Cn1ncc(-c2ccc3c(c2)CN(C2CCC(=O)NC2=O)C3=O)c1-c1ccc(F)c(F)c1 (stereo not drawn) [Example 134] | E (E = >25-75% remaining) | < 25 | ≥ 25 | F (F = >75-100% remaining)
